The source of these data is ChEMBL document CHEMBL5584231, “Rational design of a new short anticancer peptide with good potential for cancer treatment” (Eur J Med Chem, 2024).

Residues, ends and D or L forms follow the SMILES beside them.

The test system of one series is MCF7. Kind of series: Cytotoxicity against human MCF7 cells assessed as inhibition of cell growth incubated for 1 hr by MTT assay. Particulars: MCF7, 1 h. In kind it is functional, cell-based.
The nature of series [1]: Therapeutic index, ratio of HC10 for mouse RBC to IC50 for cytotoxicity against human A549 cells. In kind it is toxicity, cell-based. The settings on record: mouse RBC and A549 cells, read-out: TI.
A further series relates to A549. Kind of series: Cytotoxicity against human A549 cells assessed as inhibition of cell growth incubated for 1 hr by MTT assay. In kind it is functional, cell-based. Particulars: A549, 1 h. (In general: Tetrazolium dyes change colour on reduction, which living cells bring about.)
Series [2] can be described thus: Therapeutic index, ratio of HC10 for mouse RBC to IC50 for cytotoxicity against human MCF7 cells. In kind it is toxicity, cell-based. Particulars: mouse RBC and MCF7 cells, read-out: TI.
Series [3] can be described thus: Cytotoxicity against RG cells (unknown origin) assessed as inhibition of cell growth incubated for 1 hr by MTT assay. Format: functional, cell-based.
Series [4] in a line: Therapeutic index, ratio of HC10 for mouse RBC to IC50 for cytotoxicity against human HeLa cells. In kind it is toxicity, cell-based. The settings on record: mouse RBC and HeLa cells, read-out: TI.
The test system of another series is HeLa. Kind of series: Cytotoxicity against human HeLa cells assessed as inhibition of cell growth incubated for 1 hr by MTT assay. In kind it is functional, cell-based.
Series [5] can be described thus: Therapeutic index, ratio of HC10 for mouse RBC to IC50 for cytotoxicity against RG cells (unknown origin). Particulars: mouse RBC and RG cells, read-out: TI. Format: toxicity, cell-based.
Series [6] in a line: Cytotoxicity against HK-2 cells assessed as inhibition of cell growth incubated for 1 hr by MTT assay. Format: toxicity, cell-based. The settings on record: human.

The term IC50 denotes the midpoint of a concentration-inhibition curve. As to `CC(C)C[C@H](NC(=O)[C@H](CC(C)C)NC(=O)[C@H](CCCCN)NC(=O)[C@H](CCCCN)NC(=O)[C@H](CC(C)C)NC(=O)[C@H](CC(C)C)NC(=O)[C@H](CCCCN)NC(=O)[C@H](CCCCN)NC(=O)[C@H](CC(C)C)NC(=O)[C@H](CC(C)C)NC(=O)[C@H](CCCCN)NC(=O)[C@H](CCCCN)NC(=O)[C@H](CC(C)C)NC(=O)[C@@H](N)CCC(=O)O)C(N)=O` (H-ELKKLLKKLLKKLL-NH2), the 50% inhibitory concentration (IC50) was found to be 39.9 µM in the series with MCF7, 14.7 µM in the series on A549, 22.5 µM in series [3] and 16.3 µM in the series with HeLa. Further, the selectivity ratio came out at 1.75 in [1], 0.647 in series [2], 1.58 in series [4] and 1.15 in series [5]. Also, the concentration for half-maximal inhibition (IC50) at 1 h in series [6] worked out at 50.8 µM.
For `CC(C)C[C@H](NC(=O)[C@H](CC(C)C)NC(=O)[C@H](CCCCN)NC(=O)[C@H](CCCCN)NC(=O)[C@H](CC(C)C)NC(=O)[C@H](CC(C)C)NC(=O)[C@H](CCCCN)NC(=O)[C@H](CCCCN)NC(=O)[C@H](CC(C)C)NC(=O)[C@H](CC(C)C)NC(=O)[C@H](CCCCN)NC(=O)[C@@H](N)CCCCN)C(=O)N[C@@H](CCCCN)C(N)=O` (H-KKLLKKLLKKLLK-NH2), the IC50 in the series with MCF7 turned out to be 108 µM; with A549, 55.4 µM; in series [3] it was 93.3 µM; in the series with HeLa, 20.8 µM. In addition, the selectivity ratio in [1] amounted to 9.03; in [2], 4.61; in series [4], 24.1; in series [5] it was 5.36. For the same molecule, the IC50 at 1 h in series [6] amounted to 63.9 µM.
Regarding `CC(C)C[C@H](NC(=O)[C@H](CC(C)C)NC(=O)[C@H](CCCCN)NC(=O)[C@H](CCCCN)NC(=O)[C@H](CC(C)C)NC(=O)[C@H](CC(C)C)NC(=O)[C@H](CCCCN)NC(=O)[C@H](CCCCN)NC(=O)[C@H](CC(C)C)NC(=O)[C@H](CC(C)C)NC(=O)[C@H](CCCCN)NC(=O)[C@H](CCCCN)NC(=O)[C@H](CC(C)C)NC(=O)[C@H](CC(C)C)NC(=O)[C@H](CCCCN)NC(=O)[C@@H](N)CCCCN)C(=O)N[C@@H](CCCCN)C(N)=O` (H-KKLLKKLLKKLLKKLLK-NH2), the half-inhibitory concentration (IC50) with MCF7 was determined as 9.06 µM; with A549, 7.23 µM; in series [3], 10.9 µM; in the series on HeLa, 4.63 µM. The selectivity ratio in series [1] was determined as 1.67; in series [2], 1.34; in [4], 2.62; in [5], 1.11. Further, the half-maximal inhibitory concentration (IC50) at 1 h in [6] is 8.47 µM.
Turning to `CC(C)C[C@H](NC(=O)[C@H](CCCCN)NC(=O)[C@H](CC(C)C)NC(=O)[C@H](CC(C)C)NC(=O)[C@H](CCCCN)NC(=O)[C@H](CCCCN)NC(=O)[C@H](CC(C)C)NC(=O)[C@H](CC(C)C)NC(=O)[C@H](CCCCN)NC(=O)[C@H](CCCCN)NC(=O)[C@H](CC(C)C)NC(=O)[C@H](CC(C)C)NC(=O)[C@H](CCCCN)NC(=O)[C@H](CCCCN)NC(=O)[C@H](CC(C)C)NC(=O)[C@H](CC(C)C)NC(=O)[C@H](CCCCN)NC(=O)[C@@H](N)CCCCN)C(N)=O` (H-KKLLKKLLKKLLKKLLKL-NH2), the IC50 was found to be 5.88 µM with MCF7, 5.61 µM in the series with A549, 9.04 µM in series [3] and 3.45 µM with HeLa. For the same molecule, the selectivity ratio was found to be 1.11 in series [1], 1.05 in [2], 1.8 in [4] and 0.686 in series [5]. Further, in series [6], the IC50 at 1 h amounted to 15.1 µM.
